Data: patent US8889875B2, “Pyridyl derivatives as CFTR modulators” (Vertex Pharmaceuticals Incorporated, priority 2008, dated 2014)

Molecular target: T1, ΔF508-CFTR (Homo sapiens, UniProt P13569, DEL508-508)
T1 construct: expressed in transfected cells
Assay: Membrane potential optical assay, identification of correction compounds (single-addition HTS format)
Type: cell-based
Details: PercentActivity; ΔF508-CFTR in NIH3T3 mouse fibroblasts; 16-24 hrs with compound; 10 μM forskolin and 20 μM genistein; read-out: BinnedMaxEfficacy
Source text: Membrane Potential Optical Methods for Assaying ΔF508-CFTR Modulation Properties of Compounds.
The assay utilizes fluorescent voltage sensing dyes to measure changes in membrane potential using a fluorescent plate reader (e.g., FLIPR III, Molecular Devices, Inc.) as a readout for increase in functional ΔF508-CFTR in NIH 3T3 cells. The driving force for the response is the creation of a chloride ion gradient in conjunction with channel activation by a single liquid addition step after the cells have previously been treated with compounds and subsequently loaded with a voltage sensing dye.
To identify small molecules that correct the trafficking defect associated with ΔF508-CFTR; a single-addition HTS assay format was developed. Assay Plates containing cells are incubated for ˜2-4 hours in tissue culture incubator at 37° C., 5% CO2, 90% humidity. Cells are then ready for compound exposure after adhering to the bottom of the assay plates.
The cells were incubated in serum-free medium for 16-24 hrs in tissue culture incubator at 37° C., 5% CO2, 90% humidity in the presence or absence (negative control) of test compound. The cells were subsequently rinsed 3× with Krebs Ringers solution and loaded with a voltage sensing redistribution dye. To activate ΔF508-CFTR, 10 μM forskolin and the CFTR potentiator, genistein (20 μM), were added along with Cl^−-free medium to each well. The addition of Cl^−-free medium promoted Cl^− efflux in response to ΔF508-CFTR activation and the resulting membrane depolarization was optically monitored using voltage sensor dyes.
Bath Solution #1: (in mM) NaCl 160, KCl 4.5, CaCl2 2, MgCl2 1, HEPES 10, pH 7.4 with NaOH.
Chloride-free bath solution: Chloride salts in Bath Solution #1 are substituted with gluconate salts.
NIH3T3 mouse fibroblasts stably expressing ΔF508-CFTR are used for optical measurements of membrane potential. The cells are maintained at 37° C. in 5% CO2 and 90% humidity in Dulbecco's modified Eagle's medium supplemented with 2 mM glutamine, 10% fetal bovine serum, 1×NEAA, β-ME, 1×pen/strep, and 25 mM HEPES in 175 cm^2 culture flasks. For all optical assays, the cells were seeded at ˜20,000/well in 384-well matrigel-coated plates and cultured for 2 hrs at 37° C. before culturing at 27° C. for 24 hrs. for the potentiator assay. For the correction assays, the cells are cultured at 27° C. or 37° C. with and without compounds for 16-24 hours.

T1 sequence (P13569 with tags, fused parts or gaps DEL508-508): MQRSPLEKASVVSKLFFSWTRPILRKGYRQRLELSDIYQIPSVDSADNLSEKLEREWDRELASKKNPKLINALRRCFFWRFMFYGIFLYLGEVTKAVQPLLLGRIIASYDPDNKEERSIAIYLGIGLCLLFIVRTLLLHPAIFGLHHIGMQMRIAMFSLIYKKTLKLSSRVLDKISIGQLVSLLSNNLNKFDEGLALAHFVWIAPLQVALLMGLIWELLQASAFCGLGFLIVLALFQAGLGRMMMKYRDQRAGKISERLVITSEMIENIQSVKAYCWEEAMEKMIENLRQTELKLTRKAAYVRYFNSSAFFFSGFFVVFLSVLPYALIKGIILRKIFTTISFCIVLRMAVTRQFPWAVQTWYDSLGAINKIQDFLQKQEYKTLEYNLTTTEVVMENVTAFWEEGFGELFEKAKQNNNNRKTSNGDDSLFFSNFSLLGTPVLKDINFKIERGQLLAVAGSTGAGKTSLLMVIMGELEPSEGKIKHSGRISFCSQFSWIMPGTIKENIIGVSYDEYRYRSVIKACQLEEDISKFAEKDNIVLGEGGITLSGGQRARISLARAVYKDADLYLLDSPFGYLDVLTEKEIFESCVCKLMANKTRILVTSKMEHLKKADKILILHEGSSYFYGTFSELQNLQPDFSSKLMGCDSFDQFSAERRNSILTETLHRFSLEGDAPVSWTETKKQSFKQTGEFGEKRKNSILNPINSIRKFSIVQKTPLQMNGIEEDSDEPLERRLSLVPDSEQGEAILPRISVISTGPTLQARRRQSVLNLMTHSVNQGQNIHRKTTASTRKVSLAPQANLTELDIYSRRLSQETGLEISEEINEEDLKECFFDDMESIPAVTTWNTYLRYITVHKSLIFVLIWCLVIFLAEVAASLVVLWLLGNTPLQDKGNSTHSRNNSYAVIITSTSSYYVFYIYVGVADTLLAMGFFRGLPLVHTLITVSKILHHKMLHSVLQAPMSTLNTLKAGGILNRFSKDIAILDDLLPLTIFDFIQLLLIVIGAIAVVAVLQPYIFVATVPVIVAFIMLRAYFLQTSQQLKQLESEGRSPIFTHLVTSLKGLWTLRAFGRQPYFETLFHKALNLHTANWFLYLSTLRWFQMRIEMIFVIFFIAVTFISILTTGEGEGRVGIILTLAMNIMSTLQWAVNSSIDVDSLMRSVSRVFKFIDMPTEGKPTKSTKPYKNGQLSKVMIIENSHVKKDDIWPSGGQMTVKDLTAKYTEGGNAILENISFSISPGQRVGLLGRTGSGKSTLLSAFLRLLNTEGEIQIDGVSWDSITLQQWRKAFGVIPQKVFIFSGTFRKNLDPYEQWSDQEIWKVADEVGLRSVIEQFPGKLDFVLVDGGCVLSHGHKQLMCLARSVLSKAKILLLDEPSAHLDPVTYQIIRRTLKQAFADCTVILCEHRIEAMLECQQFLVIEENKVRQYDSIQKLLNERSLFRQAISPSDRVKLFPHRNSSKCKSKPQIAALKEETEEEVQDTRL

Structure (SMILES): Cc1cccc(NC(=O)C2(c3ccc4c(c3)OCO4)CC2)n1 [Compound 72]
- Emax: > 100%

Structure (SMILES): Cc1ccc(NC(=O)C2(c3ccc4c(c3)OC(F)(F)O4)CC2)nc1NCc1ccccc1 [Compound 73]
- Emax: > 100%

Structure (SMILES): COc1ccccc1N(C)c1cccc(NC(=O)C2(c3ccc4c(c3)OCO4)CC2)n1 [Compound 74]
- Emax: > 100%

Structure (SMILES): CCc1ccnc(NC(=O)C2(c3ccc(OC)cc3)CC2)c1 [Compound 75]
- Emax: 25 to 100%

Structure (SMILES): COc1ccccc1C(=O)c1ccc(NC(=O)C2(c3ccc(Cl)cc3)CC2)nc1 [Compound 76]
- Emax: > 100%

Structure (SMILES): COc1ccccc1C(=O)c1ccc(NC(=O)C2(c3ccccc3)CC2)nc1 [Compound 77]
- Emax: 25 to 100%

Structure (SMILES): O=C(Nc1cccc(Cc2ccccc2Cl)n1)C1(c2ccc3c(c2)OCO3)CC1 [Compound 78]
- Emax: > 100%
